Data taken from US20230131559A1, “RECOMBINANT PEPTIDES THAT BIND TO A TUMOUR-SPECIFIC ANTIBODY FOR BREAST CANCER AND USE” (Universidade Federal de Uberlândia, priority 2019, published 2023).

Columns and labels:
[1] = test system: serum from 150 patients (BC, BBD, NC); assay: ELISA of synthetic peptides against serum of 150 patients (diagnostic ability); format: binding, human; conditions: serum from 150 patients (50 from each study group)
Protocol: (§1) A microtiter plate was sensitized with 2.5 μg/well of each of the peptides diluted in carbonate/bicarbonate buffer (50 mM pH 9.6) and kept for 16 hours at 4° C. After blocking with PBS1X-BSA3% (1 hour at 37° C.) a single wash with PBS1X preceded the addition of FabC4 (1 ug), incubated for 1 hour at 37° C. After washing with PBS1X, anti-HA antibody which was labeled with peroxidase (Roche Applied Science) diluted 1:5000 in PBS-BSA3% for 1 h at 37° C. was added. After washing with PBS1X, the reaction with the OPD SigmaFast® (Sigma-Aldrich) substrate, interrupted with H2SO4 (2N), was analyzed in a spectrophotometer at a length of 492 nm (TP-Reader ThermoPlate).
The same conditions were used to analyze the diagnostic capacity of the peptides against the serum of the 150 patients previously described. Again, ANOVA and Mann Whitney tests were used for comparative purposes between groups with the aid of the GraphPad Prism 7.0 (GraphPad Software Inc.—La Jolla, Calif., USA) software. Values of P<0.05 were considered significant.

FabC4 antibody fragment = assay: ELISA of synthetic peptides for binding to FabC4; conditions: 2.5 μg/well peptide, FabC4 1 ug, 492 nm
Protocol: Clones A5, A7, C4 and D6, which were able to discriminate the serum of individuals with BC from BBD and NC by Phage-ELISA, were chemically synthesized by GenScript USA Inc. To increase immunogenicity, the peptides were coupled to BSA. Enzyme immunoassays were conducted to assess the ability of FabC4 antibody to recognize these peptides.
as §1

Row | Sequence | reactivity between the samples [1] | absorbance, binding to FabC4 by ELISA (FabC4 antibody fragment)
1 | VTPCSSFSSFLP (listed as Homo sapiens) [pD6, chemically synthesized peptide of clone D6] | differential reactivity between the samples | 
2 | VMPAAKYSLRVL (listed as Homo sapiens) [pC4, chemically synthesized peptide expressed in phage C4] |  | highest absorbance
